The assay deals with Serine/threonine-protein kinase mTOR (Homo sapiens, UniProt P42345). Nature of the assay: Inhibition of mTOR (unknown origin) by KINOMEscan assay.

The compound `c1ccc(-c2c(-c3ccccc3)n(Cc3ccco3)c3ncnc(NCCCn4ccnc4)c23)cc1` displayed an IC50 of 54.1 µM.

The IC50 is the concentration needed to halve the response being measured. High values mean weaker potency, low ones greater potency.

The record behind these values is ChEMBL document CHEMBL3112406, “Virtual screening and biochemical evaluation to identify new inhibitors of mammalian target of rapamycin (mTOR)” (Bioorg Med Chem Lett, 2014).
